From publication PMC3925085, “Subditine, a New Monoterpenoid Indole Alkaloid from Bark of Nauclea subdita (Korth.) Steud. Induces Apoptosis in Human Prostate Cancer Cells” (PLoS ONE, 2014)

Key:
[1] = tested on: RWPE-1 human normal prostate epithelial cells; test: MTT cell proliferation assay, RWPE-1; assay type: cell-based; conditions: 24 hours, RWPE-1 normal cells, mean ± S.D.
Procedure: (§1) Human prostate normal cell line (RWPE-1) and human prostate cancer cell lines; LNCaP and PC-3, were purchased from the American Type Culture Collection (ATCC, Manassas, Virginia, USA). LNCaP and PC-3 cells were grown in Roswell Park Memorial Institute medium (RPMI) supplemented with 10% heat-inactivated fetal bovine serum (FBS, Sigma-Aldrich, St. Louis, MO), 1% penicillin and streptomycin. RWPE-1 cells were maintained in Keratinocyte Serum Free Medium (K-SFM, ATCC) supplemented with bovine pituitary extract (BPE) and human recombinant epidermal growth factor (EGF). Mediums were supplemented with 10% heat-inactivated fetal calf serum (Sigma.), 100 U/ml penicillin and […] streptomycin (Flowlab, Sydney, Australia). All cells were maintained in a humidified atmosphere of 5% CO2 in air at 37°C incubator.
(§2) The anti-proliferative activity was evaluated by performing MTT assays as previously described with minor modifications. Briefly, cells were seeded 24 hours prior to treatment in a 96-well plate at 5×10^4 cells/well in order to obtain 70% to 80% confluent cultures. The compounds were dissolved in DMSO (Sigma Chemical Co., St. Louis, Missouri, USA) followed by a 2×serial dilution for 10 points ranged from 0.825 µM to 100 µM. The 96-well plate was incubated for 24 hours at 37°C in a humidified atmosphere with 5% CO2. At the end of incubation, 50 µl of MTT solution (2 mg/ml; Sigma) was added to each well. The plate was then incubated for 4 hours. All medium was removed and the purple formazan crystal formed at the bottom of the wells was dissolved with 200 µl DMSO for 20 minutes. The absorbance at 570 nm was read on a spectrophotometric plate reader (Hidex). The proportion of surviving cells was calculated as: […]
(§3) Dose-response curves were constructed to obtain the IC50 values. Experimental data were derived from 3 independent experiments. The selectivity index was obtained by mean IC50 RWPE-1/mean IC50 of LNCaP or PC-3.

[2] = tested on: PC-3 cells; test: Hoechst 33342 / phalloidin staining, PC-3; assay type: cell-based, human; conditions: PC-3, 12.5 µM and 25 µM, 24 hours, P<0.05
Procedure: (§4) Cytoskeletal and nuclear morphological changes of LNCaP and PC-3 cells were examined by phalloidin (detects F-actin) and Hoechst 33342 staining. […] At concentration 12.5 µM and 25 µM, nuclear condensation and fragmentation were detected at 24 hours after subditine (1) treatment (Figure 4).
(§5) Figure 3 Subditine (1) induced cytoskeletal rearrangement at the peripheral. LNCaP and PC-3 cells were treated with subditine (1) at various concentrations for 24 hours. Cells were fixed and stained with Hoechst (blue) and phalloidin (red) dye which stained nucleus and polymerized actin (F-actin), respectively. Bar chart showing average fluorescent intensity of phalloidin (mean ± S.D.; *p<0.05).
(§6) Figure 4 Subditine (1) treatment leads to nuclear DNA fragmentation. LNCaP and PC-3 cells were treated with subditine (1) (12.5 µM and 25 µM) for 24 h. Cells were then fixed and stained with Hoescht 33342 (blue). Red circles indicate DNA shrinkage or fragmentation. Images were captured using Cellomic arrayscan system.

[3] = tested on: intracellular ROS in PC-3 cells; test: ROS assay (DHE dye, Cellomics HCS), PC-3; assay type: cell-based, human; conditions: PC-3, 12.5, 25, 50 µM, 24 h
Procedure: (§7) The production of intracellular ROS was detected as described previously. The DHE dye reagent is converted to fluorescent ethidium and intercalates into DNA in response intracellular ROS. Briefly, 10 mM DHE stock solution (in methanol) was diluted 500-fold in HBSS without serum or other additives to yield a 20 µM working solution. After exposure to subditine (1), the cells in the 96-well black plate was washed twice with HBSS and then incubated in 100 µL working solution of DHE at 37°C for 30 minutes. Fluorescence of DCF in each cell was captured, extracted and analyzed with ArrayScan II Data Acquisition and Data Viewer version 3.0 (Cellomics).

[4] = tested on: LNCaP human prostate cancer cells; test: MTT cell proliferation assay, LNCaP; assay type: cell-based
Procedure: as §1, §2, §3

[5] = tested on: glutathione reductase (GR) gene expression in PC-3 cells; test: Oxidative stress and antioxidant defense qPCR-array, PC-3; assay type: cell-based, human; conditions: PC-3, 12.5 µM, 18 h, relative to control cells
Procedure: LNCaP and PC-3 cells were treated with subditine (1) (12.5 µM) for 18 h. RNA was extracted from PC-3 or LNCaP cells using RNeasy plus mini kit (Qiagen). 1 µg of RNA was reverse transcribed into cDNA using the RT2 first strand kit (SA Biosciences, Qiagen).cDNA was mixed with RT2 Real Time™ SYBR Green/fluorescein PCR master-mix and loaded into each 96 wells of the Human Oxidative Stress and Antioxidant Defense qPCR array according to the manufacturer’s protocol (SA Biosciences, Qiagen). Briefly, a total volume of 25 µl of PCR mixture, which included 12.5 µl of mastermix, 11.5 µl of double distilled water, and 1 µl of cDNA was loaded into each of the 96wells. qPCR were done using StepOne PLUS real-time PCR machine (Applied Biosystems). PCR amplification was conducted at 95°C for 10 min, followed by 40 cycles of 95°C for 15 sec and 60°C for 1 min. The mRNA expression for each gene was normalized using the average expression of five housekeeping genes:
β-actin (ACTB), β-2-microglobulin (β2M), hypoxanthine phosphoribosyltransferase 1 (HPRT1), ribosomal protein L13a (RPL13A) and glyceraldehyde-3-phosphate dehydrogenase (GAPDH). The ΔΔCt method was used for data analysis. Fold changes were calculated for each gene as the difference in gene expression between subditine (1) or non-treated control using the RT Profiler qPCR-array data analysis software.

[6] = tested on: LNCaP cells; test: Hoechst 33342 / phalloidin staining, LNCaP; assay type: cell-based, human; conditions: 24 hours
Procedure: as §4, §5, §6

[7] = tested on: intracellular ROS in LNCaP cells; test: ROS assay (DHE dye, Cellomics HCS), LNCaP; assay type: cell-based, human; conditions: LNCaP, 12.5, 25, 50 µM, 24 h
Procedure: as §7

Cc1ncc2c(=O)n3c(cc2c1C=O)-c1[nH]c2ccccc2c1CC3 [Subditine, subditine]
IC50 [1]: 30.48 ± 0.08 µM
nuclear intensity (apoptotic chromatin changes) [2]: significantly increased
ROS production (DCF/DHE fluorescence level) [3]: significantly increased in a dose-dependent manner
IC50 ([4]; Homo sapiens, MTT, 24 hours, LNCaP, mean ± S.D.): 12.2 ± 0.19 µM
folds more potent against LNCaP than normal prostate cells RWPE-1 ([4]; LNCaP vs RWPE-1): 2.5 folds
selectivity index (SI) LNCaP ([4]; mean IC50 RWPE-1/mean IC50 of LNCaP): 2.49
glutathione reductase (GR) gene expression fold change [5]: > 20 fold
nuclear intensity (apoptotic chromatin changes) ([6]; 12.5 µM and 25 µM, P<0.05): significantly increased
phalloidin (F-actin) intensity ([6]; various concentrations): Dose-dependent increased
ROS production (DCF/DHE fluorescence level) [7]: significantly increased in a dose-dependent manner
